The source made the active and inactive calls.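 How the source made its calls: active means blocks protein phosphatase 1 activity with an IC50 half-maximal inhibitory concentration below 10 µM; inactive means IC50 of 10 µM or higher.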

Sequence of Serine/threonine-protein phosphatase PP1-alpha catalytic subunit (Homo sapiens) (P62136 whole entry, looked up): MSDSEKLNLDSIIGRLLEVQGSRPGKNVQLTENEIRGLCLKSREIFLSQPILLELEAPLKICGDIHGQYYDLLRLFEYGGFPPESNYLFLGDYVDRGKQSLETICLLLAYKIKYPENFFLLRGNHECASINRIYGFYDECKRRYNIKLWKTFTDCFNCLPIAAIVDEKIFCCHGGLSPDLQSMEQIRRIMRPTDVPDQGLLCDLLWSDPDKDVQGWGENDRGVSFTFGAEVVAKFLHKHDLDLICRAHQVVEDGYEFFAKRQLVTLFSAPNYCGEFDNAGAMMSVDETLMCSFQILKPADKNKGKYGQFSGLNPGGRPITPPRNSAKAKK

The experiment addresses Serine/threonine-protein phosphatase PP1-alpha catalytic subunit (Homo sapiens) (UniProt P62136). The experiment in a line: PP1alpha inhibitors on histone substrate, IC50 – biochemical, radiolabel, dose response, powder samples, late-stage follow-up (AID 652232). The note with it: purified PP1alpha, 33P-phosphohistone dephosphorylation, scintillation.
In turn, `CC(C)(C)OC(=O)N1CCN(C(c2ccccn2)c2cc(Cl)c3cccnc3c2O)CC1` (centres undefined) showed an IC50 of 44.2 µM.
As for `CC1CCN(C(c2ccccn2)c2cc(Cl)c3cccnc3c2O)CC1` (centres undefined), the entry is “inactive”; as for `Oc1c(C(c2ccccn2)N2CCC(Cc3ccccc3)CC2)cc(Cl)c2cccnc12` (centres undefined), 27 µM.
As to `Oc1c(C(c2ccccn2)N2CCN(c3ccccc3F)CC2)cc(Cl)c2cccnc12` (centres undefined), the IC50 result was “inactive”.

The values above are taken from PubChem BioAssay AID652232 (The Scripps Research Institute Molecular Screening Center, 2013).
